{"source": "patent US20020147318A1", "about": "“Preparation method of water soluble carboxylmethyl chitosan having anti-lipid peroxidation ability” (priority 2001, published 2002)", "test_system": "lipid peroxidation in rat liver microsomes", "assay": "Anti-lipid peroxidation in rat liver microsomes (NADPH-induced, MDA-TBA absorbance at 535 nm)", "format": "biochemical", "method": "In the present, the rat microsomes is used to provide lipid source. The product of lipid peroxidation induced by NADPH with heat treatment (deconstructing microsome enzyme) is referred as MDA (malondialdehyde). The MDA is added with TBA (thiobarbituric acid) to form MDA-TBA compound with pink fluorescence. The MDA-TBA compound has absorption spectrum at 535 nm (or 532 nm) wavelength. The content of MDA can be manifested by the absorption degree of light at those wavelengths. Therefore, the degree of lipid peroxidation can also be known. If the content of MDA is decreased after addition of water soluble CM chitosan, the reduction of MDA can be attributed to the water soluble CM chitosan. It means that the water soluble CM chitosan has the ability of anti-lipid peroxidation. In the present invention, the anti-lipid peroxidation ability of the water soluble CM chitosan is compared with that of the Trolex (water soluble vitamin E).", "data": [{"smiles": "Cc1c(C)c2c(c(C)c1O)CCC(C)(C(=O)O)O2", "note": "(stereo not drawn) [Trolex]", "values": [{"measurement": "effect on lipid peroxidation in rat liver microsomes", "setting": "addition of the substance to rat liver microsomes", "value": "can suppress the lipid peroxidation"}, {"measurement": "MDA, the product of lipid peroxidation", "setting": "as the added amount of the substance is increased", "value": "monotonically decreased"}, {"measurement": "IC50 (the concentration required to suppress 50% lipid peroxidation)", "setting": "rat liver microsomes, average over at least three data", "value": 4.96, "unit": "µg/mL"}]}]}
